Target: Human PKK (Homo sapiens (Human), UniProt P03952)
Assay: Inhibition of PKK using an endpoint assay (human PKK)
Type: biochemical
Conditions: 1 h at rt, 0.10 μM H-Pro-Phe-Arg-AMC
Experimental: The ability of compounds of formula (I) to inhibit plasma kallikrein (PKK), Factor XIIa (FXIIa), Factor XIa (FXIa), Factor Xa (FXa), Factor IIa (alpha-thrombin; FIIa), plasmin, trypsin, tissue kallikrein 1 (TK1), Factor Vila (FVIIa), or FVIIa complexed with Tissue Factor, phospholipids and CaCl2) (FVIIa/TF/PL/CaCl2) was determined using the following biochemical assays in assay buffer (100 mM Tris, 150 mM NaCL, adjusted to a pH of 7.8 with HCl, and containing 0.1% (w/v) BSA and 0.05% (v/v) Tween20) in the presence of 1% (v/v) DMSO:
Subsequently, PPACK II (Calbiochem) was added as a stop solution to achieve a final concentration of 1 μM and fluorescence was measured using an Envision Reader (PerkinElmer) with the wavelength excitation setting of 355 nm and the wavelength emission setting of 460 nm. The number of the compound corresponds to the number of the Example in the experimental section.

Chain of Human PKK (P03952 391-638): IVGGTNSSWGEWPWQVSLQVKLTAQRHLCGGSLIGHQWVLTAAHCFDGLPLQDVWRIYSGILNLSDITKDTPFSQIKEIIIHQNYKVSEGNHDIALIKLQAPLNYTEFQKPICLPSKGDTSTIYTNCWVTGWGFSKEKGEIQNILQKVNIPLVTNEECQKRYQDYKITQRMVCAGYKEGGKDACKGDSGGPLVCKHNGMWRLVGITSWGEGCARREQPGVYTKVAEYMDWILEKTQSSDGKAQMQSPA
Chain of Human PKK (P03952 20-390 partner): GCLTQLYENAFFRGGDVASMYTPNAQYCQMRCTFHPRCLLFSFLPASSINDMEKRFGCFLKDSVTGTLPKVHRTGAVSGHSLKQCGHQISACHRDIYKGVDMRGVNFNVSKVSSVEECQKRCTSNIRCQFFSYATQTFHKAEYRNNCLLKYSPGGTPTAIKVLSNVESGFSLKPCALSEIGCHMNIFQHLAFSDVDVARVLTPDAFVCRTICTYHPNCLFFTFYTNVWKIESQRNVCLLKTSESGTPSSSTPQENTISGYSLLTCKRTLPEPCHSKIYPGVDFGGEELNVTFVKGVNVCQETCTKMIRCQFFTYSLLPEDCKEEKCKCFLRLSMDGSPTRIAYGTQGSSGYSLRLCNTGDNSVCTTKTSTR

Row | IC50 [nM] | SMILES
1 | 7 | Cc1nc(N2CC3COCC(C3)C2)ccc1Cn1cc(C(=O)NCc2cc(Cl)ccc2-n2cnnn2)cn1 [Example 75, N-{[5-chloro-2-(1H-1,2,3,4-tetrazol-1-yl)phenyl]methyl}-1-[(2-methyl-6-{3-oxa-7-azabicyclo[3.3.1]nonan-7-yl}pyridin-3-yl)methyl]-1H-pyrazole-4-carboxamide]
2 | 6 | COCc1nn(Cc2cnc(N3CC4(CC4)C3)nc2C)cc1C(=O)NCc1cc(Cl)ccc1-n1cnnn1 [Example 41]
3 | 0.6 | COCc1nn(Cc2ccc(N3CC4C(C3)C4(F)F)nc2C)cc1C(=O)NCc1c(-n2cnnn2)ccc(Cl)c1F (stereo not shown) [Example 11]
4 | 2 | O=C(NCc1cc(Cl)ccc1-n1cnnn1)c1cnn(Cc2cnc(N3CC4C(C3)C4(F)F)c(Br)c2)c1 (stereo not shown) [Example 51]
5 | 22 | CO[C@H]1[C@@H]2CC[C@H]1CN(c1ccc(Cn3cc(C(=O)NCc4cc(Cl)ccc4-n4cnnn4)cn3)c(C)n1)C2 [Example 80]
6 | 3 | Cc1nc(N2CCC3(CCCO3)C2)ccc1Cn1cc(C(=O)NCc2cc(Cl)ccc2-n2cnnn2)cn1 (stereo not shown) [Example 76, N-{[5-chloro-2-(1H-1,2,3,4-tetrazol-1-yl)phenyl]methyl}-1-[(2-methyl-6-{1-oxa-7-azaspiro[4.4]nonan-7-yl}pyridin-3-yl)methyl]-1H-pyrazole-4-carboxamide]
7 | 2 | Cc1nc(N2CC3(CC3)C2)ccc1Cn1cc(C(=O)NCc2cc(Cl)ccc2-n2cnnn2)c(C)n1 [Example 29]
8 | 3 | Cc1nc(N2CC3(CC3)C2)ncc1Cn1cc(C(=O)NCc2cc(Cl)ccc2-n2cnnn2)cn1 [Example 39]
9 | 0.4 | Cc1nc(N2CC3CC3C2)ccc1Cn1cc(C(=O)NCc2c(-n3cnnn3)ccc(Cl)c2F)c(-c2cnn(C)c2)n1 (stereo not shown) [Example 43]
10 | 0.7 | Cc1nc(N2CC3CC3C2)ccc1Cn1cc(C(=O)NCc2cc(Cl)ccc2-n2cnnn2)c(C)n1 (stereo not shown) [Example 19]
11 | 225 | Cc1nc(N2CC3(CC(O)C3)C2)ccc1Cn1cc(C(=O)NCc2cc(Cl)ccc2-n2cnnn2)cn1 [Example 64, N-{[5-chloro-2-(1H-1,2,3,4-tetrazol-1-yl)phenyl]methyl}-1-[(6-{6-hydroxy-2-azaspiro[3.3]heptan-2-yl}-2-methylpyridin-3-yl)methyl]-1H-pyrazole-4-carboxamide]
12 | 61 | Cc1nc(N2CC[C@@]3(N)C[C@H]3C2)ccc1Cn1cc(C(=O)NCc2cc(Cl)ccc2-n2cnnn2)cn1 [Example 89, 1-({6-[(1S,6S)-6-amino-3-azabicyclo[4.1.0]heptan-3-yl]-2-methylpyridin-3-yl}methyl)-N-{[5-chloro-2-(1H-1,2,3,4-tetrazol-1-yl)phenyl]methyl}-1H-pyrazole-4-carboxamide]
13 | 2 | Cc1nc(N2CC3(CC3)C2)ncc1Cn1cc(C(=O)NCc2cc(Cl)ccc2-n2cnnn2)c(C)n1 [Example 37]
14 | 6 | Cc1nc(N2C[C@@H]3[C@@H](O)[C@@H]3C2)ccc1Cn1cc(C(=O)NCc2cc(Cl)ccc2-n2cnnn2)cn1 [Example 56]
15 | 12 | Cc1nc(N2CCC3(COC3)C2)ccc1Cn1cc(C(=O)NCc2cc(Cl)ccc2-n2cnnn2)cn1 [Example 61, N-{[5-chloro-2-(1H-1,2,3,4-tetrazol-1-yl)phenyl]methyl}-1-[(2-methyl-6-{2-oxa-6-azaspiro[3.4]octan-6-yl}pyridin-3-yl)methyl]-1H-pyrazole-4-carboxamide]
16 | 1 | COc1nn(Cc2ccc(N3CC4CC4C3)nc2C)cc1C(=O)NCc1c(-n2cnnn2)ccc(Cl)c1F (stereo not shown) [Example 22]
17 | 7 | Cc1nc(N2C[C@@H]3[C@@H](C)[C@@H]3C2)ccc1Cn1cc(C(=O)NCc2cc(Cl)ccc2-n2cnnn2)cn1 [Example 86]
18 | 286 | Cc1nc(N2CCC3(CNC3)C2)ccc1Cn1cc(C(=O)NCc2cc(Cl)ccc2-n2cnnn2)cn1 [Example 93, N-{[5-chloro-2-(1H-1,2,3,4-tetrazol-1-yl)phenyl]methyl}-1-[(6-{2,6-diazaspiro[3.4]octan-6-yl}-2-methylpyridin-3-yl)methyl]-1H-pyrazole-4-carboxamide]

Row | IC50 [nM] | SMILES
19 | 122 | Cc1nc(N2CC3(CCCN3)C2)ccc1Cn1cc(C(=O)NCc2cc(Cl)ccc2-n2cnnn2)cn1 [Example 91, N-{[5-chloro-2-(1H-1,2,3,4-tetrazol-1-yl)phenyl]methyl}-1-[(6-{2,5-diazaspiro[3.4]octan-2-yl}-2-methylpyridin-3-yl)methyl]-1H-pyrazole-4-carboxamide]
20 | 155 | Cc1nc(N2C[C@@H]3CCN[C@@H]3C2)ccc1Cn1cc(C(=O)NCc2cc(Cl)ccc2-n2cnnn2)cn1 [Example 92, 1-({6-[(3aS,6aS)-octahydropyrrolo[3,4-b]pyrrol-5-yl]-2-methylpyridin-3-yl}methyl)-N-{[5-chloro-2-(1H-1,2,3,4-tetrazol-1-yl)phenyl]methyl}-1H-pyrazole-4-carboxamide]
21 | 0.8 | Cc1nc(N2CC3C(C2)C3(F)F)ncc1Cn1cc(C(=O)NCc2c(-n3cnnn3)ccc(Cl)c2F)c(C)n1 (stereo not shown) [Example 33]
22 | 7 | Cc1nc(N2CCC3CC32)ccc1Cn1cc(C(=O)NCc2cc(Cl)ccc2-n2cnnn2)cn1 (stereo not shown) [Example 82, 1-[(6-{2-azabicyclo[3.1.0]hexan-2-yl}-2-methylpyridin-3-yl)methyl]-N-{[5-chloro-2-(1H-1,2,3,4-tetrazol-1-yl)phenyl]methyl}-1H-pyrazole-4-carboxamide]
23 | 0.4 | Cc1nc(N2CC3C(C2)C3(F)F)ccc1Cn1cc(C(=O)NCc2c(-n3cnnn3)ccc(Cl)c2F)c(C)n1 (stereo not shown) [Example 17]
24 | 0.2 | Cc1nc(N2CC3(CC3)C2)ccc1Cn1cc(C(=O)NCc2c(-n3cnnn3)ccc(Cl)c2F)cn1 [Example 53]
25 | 9 | Cc1nc(N2CC3CCCC3C2)ccc1Cn1cc(C(=O)NCc2cc(Cl)ccc2-n2cnnn2)cn1 (stereo not shown) [Example 73, N-{[5-chloro-2-(1H-1,2,3,4-tetrazol-1-yl)phenyl]methyl}-1-[(2-methyl-6-{octahydrocyclopenta[c]pyrrol-2-yl}pyridin-3-yl)methyl]-1H-pyrazole-4-carboxamide]
26 | 82 | Cc1cc(Cl)cc(CNC(=O)c2cnn(Cc3ccc(N4CC5CC5C4)nc3C)c2)c1-n1cnnn1 (stereo not shown) [Example 4]
27 | 3 | Cc1nc(N2C[C@@H]3CNC(=O)[C@@H]3C2)ccc1Cn1cc(C(=O)NCc2cc(Cl)ccc2-n2cnnn2)cn1 [Example 62, 1-({6-[(3aS,6aS)-4-oxo-octahydropyrrolo[3,4-c]pyrrol-2-yl]-2-methylpyridin-3-yl}methyl)-N-{[5-chloro-2-(1H-1,2,3,4-tetrazol-1-yl)phenyl]methyl}-1H-pyrazole-4-carboxamide]
28 | 49 | Cc1nc(N2CC3CC2CO3)ccc1Cn1cc(C(=O)NCc2cc(Cl)ccc2-n2cnnn2)cn1 (stereo not shown) [Example 77, N-{[5-chloro-2-(1H-1,2,3,4-tetrazol-1-yl)phenyl]methyl}-1-[(2-methyl-6-{2-oxa-5-azabicyclo[2.2.1]heptan-5-yl}pyridin-3-yl)methyl]-1H-pyrazole-4-carboxamide]
29 | 5 | COCc1nn(Cc2cnc(N3CC4CC4C3)nc2C)cc1C(=O)NCc1cc(Cl)ccc1-n1cnnn1 (stereo not shown) [Example 36]
30 | 0.8 | Cc1nc(N2CC3CC3C2)ncc1Cn1cc(C(=O)NCc2c(-n3cnnn3)ccc(Cl)c2F)c(C)n1 (stereo not shown) [Example 30]
31 | 0.7 | Cc1nc(N2CC3(CC3)C2)ncc1Cn1cc(C(=O)NCc2c(-n3cnnn3)ccc(Cl)c2F)c(C)n1 [Example 38]
32 | 0.8 | Cc1nc(N2CC3CC3C2)ccc1Cn1cc(C(=O)NCc2c(-n3cnnn3)ccc(Cl)c2F)c(Cl)n1 (stereo not shown) [Example 7]
33 | 845 | Cc1nc(N2CC3OCC(N)C3C2)ccc1Cn1cc(C(=O)NCc2cc(Cl)ccc2-n2cnnn2)cn1 (stereo not shown) [Example 70, 1-[(6-{3-amino-hexahydro-2H-furo[2,3-c]pyrrol-5-yl}-2-methylpyridin-3-yl)methyl]-N-{[5-chloro-2-(1H-1,2,3,4-tetrazol-1-yl)phenyl]methyl}-1H-pyrazole-4-carboxamide]
34 | 8 | Cc1nc(N2CCC3(CCOC3)C2)ccc1Cn1cc(C(=O)NCc2cc(Cl)ccc2-n2cnnn2)cn1 (stereo not shown) [Example 71, N-{[5-chloro-2-(1H-1,2,3,4-tetrazol-1-yl)phenyl]methyl}-1-[(2-methyl-6-{2-oxa-7-azaspiro[4.4]nonan-7-yl}pyridin-3-yl)methyl]-1H-pyrazole-4-carboxamide]
35 | 1 | COCc1nn(Cc2ccc(N3CC4(CC4)C3)nc2C)cc1C(=O)NCc1cc(Cl)ccc1-n1cnnn1 [Example 25]

Row | SMILES | IC50 [nM]
36 | Cc1nc(N2CC3(CC3)C2)ncc1Cn1cc(C(=O)NCc2cc(Cl)ccc2-n2cnnn2)c2cncnc21 [Example 57] | 5
37 | Cc1nc(N2CC3CC3C2)ncc1Cn1cc(C(=O)NCc2c(-n3cnnn3)ccc(Cl)c2F)c2cncnc21 (stereo not shown) [Example 26] | 0.9
38 | Cc1nc(N2CC3CC3C2)ccc1Cn1cc(C(=O)NCc2cc(Cl)ccc2-n2cnnn2)c2cccnc21 (stereo not shown) [Example 50] | 9
39 | Cc1nc(N2CC3CC(C2)C3O)ccc1Cn1cc(C(=O)NCc2cc(Cl)ccc2-n2cnnn2)cn1 (stereo not shown) [Example 68, N-{[5-chloro-2-(1H-1,2,3,4-tetrazol-1-yl)phenyl]methyl}-1-[(6-{6-hydroxy-3-azabicyclo[3.1.1]heptan-3-yl}-2-methylpyridin-3-yl)methyl]-1H-pyrazole-4-carboxamide] | 4
40 | Cc1nc(N2CC3CC(C2)O3)ccc1Cn1cc(C(=O)NCc2cc(Cl)ccc2-n2cnnn2)cn1 [Example 65, N-{[5-chloro-2-(1H-1,2,3,4-tetrazol-1-yl)phenyl]methyl}-1-[(2-methyl-6-{6-oxa-3-azabicyclo[3.1.1]heptan-3-yl}pyridin-3-yl)methyl]-1H-pyrazole-4-carboxamide] | 10

Reference: patent US12091399B2, “Phenyltetrazole derivatives as plasma kallikrein inhibitors” (Boehringer Ingelheim International GmbH, priority 2018, dated 2024)
